# Assay results published in ChEMBL document CHEMBL5579813, “2-(3-Indolyl)acetamides and their oxazoline analogues: Anticancer SAR study” (Bioorg Med Chem Lett, 2024).
# Tests used:
# BE(2)-C [1] = test: Antiproliferative activity against human BE2C cells assessed as residual cell viability at 25 uM incubated for 96 hrs by MTT assay relative to control; assay type: functional
# BE(2)-C [2] = test: Antiproliferative activity against human BE2C cells assessed as reduction in cell growth incubated for 96 hrs by MTT assay; assay type: functional, cell-based
# [3] = Antiproliferative activity against human Kelly cells assessed as reduction in cell growth incubated for 96 hrs by MTT assay; assay type: functional, cell-based
# [4] = Antiproliferative activity against human fibroblasts assessed as reduction in cell growth incubated for 96 hrs by MTT assay; assay type: toxicity, cell-based, Fibroblast
# SW-620 = test: Antiproliferative activity against human SW620 cells assessed as reduction in cell growth incubated for 96 hrs by MTT assay; assay type: functional, cell-based; settings: SW-620, 96 h
Compound,Residual cell viability (BE(2)-C [1]) [%],IC50 (BE(2)-C [2]) [µM],other results
NC(=O)C(c1ccccc1)c1c(-c2ccc3ccccc3c2)[nH]c2ccccc12 (stereo not drawn),19.2,8.46,
NC(=O)C(c1ccccc1)c1c(-c2ccc3ccccc3c2)[nH]c2ccc(Cl)cc12 (stereo not drawn),144,,
COc1ccc(C(C(N)=O)c2c(-c3ccccc3)[nH]c3ccccc23)cc1 (stereo not drawn),129,,
COc1ccc(C(C(N)=O)c2c(-c3ccccc3)[nH]c3ccccc23)cc1OC (stereo not drawn),16.1,,
NC(=O)C(c1ccccc1)c1c(-c2ccccc2)[nH]c2ccccc12 (stereo not drawn),185,,
CC1(C)COC(C(c2ccccc2)c2c(-c3ccccc3)[nH]c3ccccc23)=N1 (stereo not drawn),13.3,,
COc1ccc(-c2[nH]c3ccccc3c2C(C(N)=O)c2ccccc2)cc1 (stereo not drawn),100,,
CCc1ccc(C(C2=NC(C)(C)CO2)c2c(-c3ccc(C)c(C)c3)[nH]c3ccccc23)cc1 (stereo not drawn),16.5,,
COc1ccc(C(C(N)=O)c2c(-c3ccc4ccccc4c3)[nH]c3ccccc23)cc1 (stereo not drawn),13.7,0.47,
COc1ccc(C(C2=NC(C)(C)CO2)c2c(-c3ccc(C)cc3)[nH]c3ccccc23)cc1 (stereo not drawn),17.2,9.4,
COc1ccc(-c2[nH]c3ccccc3c2C(C(N)=O)c2ccc(C)cc2)cc1 (stereo not drawn),87,4.65,
CC(C)c1ccc(C(C(N)=O)c2c(-c3ccccc3)[nH]c3ccccc23)cc1 (stereo not drawn),88,24,
CC1(C)COC(C(c2ccccc2F)c2c(-c3ccc4c(c3)CCCC4)[nH]c3ccccc23)=N1 (stereo not drawn),25.6,88,
CCc1ccc(C(C2=NC(C)(C)CO2)c2c(-c3ccc4c(c3)CCCC4)[nH]c3ccccc23)cc1 (stereo not drawn),33.3,,
NC(=O)C(c1ccc(Cl)cc1)c1c(-c2ccc3ccccc3c2)[nH]c2ccccc12 (stereo not drawn),13.9,0.79,
COc1ccccc1C(C1=NC(C)(C)CO1)c1c(-c2ccc3c(c2)CCCC3)[nH]c2ccccc12 (stereo not drawn),42,20,
NC(=O)C(c1ccccc1Cl)c1c(-c2ccc3ccccc3c2)[nH]c2ccccc12 (stereo not drawn),132,0.96,
CCc1ccc(C(C2=NC(C)(C)CO2)c2c(-c3ccc(C)cc3)[nH]c3ccccc23)cc1 (stereo not drawn),189,,
NC(=O)C(c1cccc(Cl)c1)c1c(-c2ccc3ccccc3c2)[nH]c2ccccc12 (stereo not drawn),142,,

Compound,Residual cell viability (BE(2)-C [1]) [%],IC50 (BE(2)-C [2]) [µM],other results
COc1ccc(C(C2=NC(C)(C)CO2)c2c(-c3ccc(C)c(C)c3)[nH]c3ccccc23)cc1 (stereo not drawn),135,,
Cc1ccc(C(C(N)=O)c2c(-c3ccc4ccccc4c3)[nH]c3ccccc23)cc1 (stereo not drawn),14.5,0.29,IC50 [3]: 0.93 µM; IC50 at 96 h [4]: 75.7 µM; IC50 (SW-620): 0.37 µM
CC1(C)COC(C(c2ccccc2)c2c(-c3ccc4ccccc4c3)[nH]c3ccccc23)=N1 (stereo not drawn),128,,
NC(=O)C(c1ccc(Cl)cc1)c1c(-c2ccccc2)[nH]c2ccccc12 (stereo not drawn),14.1,0.99,
Cc1ccc(-c2[nH]c3ccccc3c2C(C2=NC(C)(C)CO2)c2ccccc2)cc1 (stereo not drawn),134,,
COc1ccc(-c2[nH]c3ccccc3c2C(C(N)=O)c2ccccc2OC)cc1 (stereo not drawn),178,7.34,
NC(=O)C(c1ccccc1)c1c(-c2ccccc2)[nH]c2ccc(Cl)cc12 (stereo not drawn),136,14,
CC1(C)COC(C(c2ccccc2Cl)c2c(-c3ccc4c(c3)CCCC4)[nH]c3ccccc23)=N1 (stereo not drawn),34.3,6.1,
COc1ccc(-c2[nH]c3ccccc3c2C(C(N)=O)c2ccccc2OC)cc1OC (stereo not drawn),169,,
COc1ccc(C(C(N)=O)c2c(-c3ccc4ccccc4c3)[nH]c3ccccc23)cc1OC (stereo not drawn),49.2,0.25,IC50 [3]: 0.23 µM; IC50 at 96 h [4]: 192 µM; IC50 (SW-620): 1.71 µM
NC(=O)C(c1ccccc1Cl)c1c(-c2ccccc2)[nH]c2ccccc12 (stereo not drawn),13.9,,
Cc1ccc(-c2[nH]c3ccccc3c2C(C(N)=O)c2ccccc2)cc1 (stereo not drawn),159,,
Cc1ccc(C(C(N)=O)c2c(-c3ccccc3)[nH]c3ccccc23)cc1 (stereo not drawn),151,,
NC(=O)C(c1cccc(Cl)c1)c1c(-c2ccccc2)[nH]c2ccccc12 (stereo not drawn),14.1,,
COc1ccccc1C(C(N)=O)c1c(-c2ccccc2)[nH]c2ccccc12 (stereo not drawn),147,,
CC1(C)COC(C(c2ccc(Cl)cc2)c2c(-c3ccc4c(c3)CCCC4)[nH]c3ccccc23)=N1 (stereo not drawn),145,18.8,
COc1ccccc1C(C(N)=O)c1c(-c2ccc3ccccc3c2)[nH]c2ccccc12 (stereo not drawn),42.4,0.28,IC50 [3]: 1.33 µM; IC50 at 96 h [4]: 155 µM; IC50 (SW-620): 1.41 µM
CC1=C(/C=C/C(C)=C/C=C/C(C)=C/C(=O)O)C(C)(C)CCC1 [TRETINOIN],,6.7,
